Results from US12006530B2, “Streptococcal proteases” (priority 2016, dated 2024).
Where a chain is given by its changes, count along the chain named. In names and notes the source's numbering stands. Entries after “also recorded” stand apart in the source; their conditions may differ. Peptide text beside a SMILES is read from it. * marks the point of attachment. Cbz = O=C(OCc1ccccc1)*; CHN2 = [N-]=[N+]=C*

B1: rIgdE^D348A (protein)
chain: DENSHLQSPKNTNKIEVLNWEAFSKKLKDYSSDQRQFHVLKLGFENRLGTLSTREELEEFGKNNNFLVINGKVTQNIHDFPHILVMNKGDVIAHNEEDYHNQMRELRFSGNGDLHNSMEPKRIHALFKIELDSNKRQLLNAAGLGTAENSLKNINGMTIYSHGLTVDNKYYEDYSKYTHNSVKNINVTKERFIANDDLIHKLIESSEAMKQSSERDKVKAFVQYVANHTTYDWEAANKAVQNYADINYYLGSDLFAVTERQKAMCVGFSTTAARAFNMLGLPAYVVVGKNAEGVPHATARVYYDKKWHTIAGTGFITGNKHQRSAKYSEKHFSTIGEDSYDVVEAGQEPKAERNYMIIDSNYESWAMKQKTADLLLFNKEKSLVGLDYIAYVEPTYITENKKNHLLDIYKALKRKVEETKATDKDDKDDKQEGYDRVLQFVNSDIDKLSALSKITEEEFKALENSMDLARVFLGQMNAKAGKEFSEGETYQSYLKNRQKNNTNSDDDRNRNELQENQANSDEVSQNSKDASAPSVNSAQQSEELEGTPSTQETISAAPSQQTPAAPKALQAKTELEDKTETSSLGNTEMVSPSSETAQNTVDSKEESDAKLPYVEPSSKESSEAQVNTVSSPQVSSASPTSSETISTDTVTASQEKAESRVSAPQVISASQTSPETNSAEVVTTSQEVAKAPVSAPQVSSEIQTLSETAPTEVATEAPELSALESNPAPQTSLETTPTEEVTETPEPSVVESNSASPTSPETNSAEAVTTSQEMAEPSVSVPQVSSEIPTSSETAPAEVATEVSEESSSASQPSPETTPTETVTTSQEVAEAPVSAPQVSSEIPTSPETASTEVVVAKQEVADSPVSAPQVISEIPTSSETAPAEVATEVTEPSVVASSSASPTSPEANSTEVVVAKQEVADPLVSAPQTSSASLTLEVPKNEHLDEKADATTPNGVEANTHEAVSVPTSDIRVQDAGSDTVPQPYSLSATLFEEAISTVEPVGVATSSQERSAVAGKVKVPTSLERSNNSVEEEKVVDSNATIENREPEKKEILTSENVLNSLVTIWVALSTSFFMRYFSRGK
B2: rIgdE^C302S (protein)
chain: B1 chain with C265S, A311D
B3: rIgdE^H333A (protein)
chain: B1 chain with H296A, A311D

Assays:
[1] = system: IgG degradation activity in culture supernatant of S. suis strain 10; assay: Inhibitor profile of IgG degradation activity in S. suis culture supernatant, anti-IgG Western blot; assay type: biochemical, Streptococcus suis; conditions: for IgG cleavage product in presence of inhibitor: concentrated (10×) supernatant of strain 10, porcine plasma; for IgG cleaving activity in the presence of class specific protease inhibitors: protease enriched ammonium sulfate precipitates of S. suis culture supernatant, porcine plasma
Protocol: Concentrated (10×) culture supernatant of S. suis strain 10 was incubated with porcine plasma in presence of class specific protease inhibitors. The reaction was analyzed by anti-IgG western blot under reducing conditions.
To monitor IgG cleavage activity in concentrated and fractionated culture supernatants, samples were incubated with 1% porcine plasma in PBS for 16 h at 37° C. prior to Western blot analyses.
To identify the catalytic type of the IgG protease, the IgG degradation reaction was performed in the presence of 0.1-5 mM AEBSF (Sigma), 0.1-5 mM EDTA, 50-250 μM E-64 (Sigma), 0.1-5 mM Z-LVG-CHN2 (Bachem), 0.1-5 mM Iodoacetamide (Sigma) or 1/200 to 1/50 dilution of complete protease inhibitor cocktail (Roche).
(§1) Samples for SDS-PAGE were prepared with either reducing or non-reducing sample buffer and heated to 95° C. for 5 min. 12% SDS-PAGE was either stained with Coomassie blue (Sigma), Coomassie Fluor™ Orange Protein Gel Stain (Invitrogen) or blotted to Hybond-P PVDF membrane (GE Healthcare) for western blot analyses. Membranes were blocked with 5% dry milk powder in 0.1% PBS-Tween, followed by incubation with horse-radish peroxidase conjugated antibodies. Goat anti-pig IgG-HRP (Thermo Scientific) and goat anti-porcine IgM-HRP (Thermo Scientific) was diluted 1:25′000 and goat anti-porcine IgA-HRP (Thermo Scientific) was diluted 1:12′500. Membranes were thoroughly washed with 0.1% PBS-Tween prior to development with Amersham ECL Select Western blotting detection reagent (GE Healthcare) according to manufactures instruction and pictured by LAS4000 imaging system (Fujifilm).

[2] = system: S. suis IgdE^ΔC; assay: Inhibitor profile of purified recombinant IgdE^ΔC, quantitative IgG degradation analysis; assay type: biochemical, Streptococcus suis; conditions: porcine IgG
Protocol: The time course of cleavage (A) was monitored by continuous sampling prior to Coomassie fluor orange stained SDS-PAGE under reducing conditions followed by densitometric quantification of the cleavage product. 1.67 μM porcine IgG was incubated with 0.2 μM purified rIgdE^ac. Overnight cleavage (16 h) was set as 100% relative cleavage. For the inhibitor profile (B) initial cleavage in presence of 250 μM and 2.5 μM of each inhibitor was monitored. Initial cleavage activity of the uninhibited control was set as 100% relative activity. The DMSO control correlates to 250 μM Z-LVG-CHN2. Data are presented as mean±SEM of three experiments. Differences to the uninhibited control (*) or DMSO control (□) were analyzed by Dunnett's Multiple Comparison Test with significance set at P values of <0.05(*), <0.01(**) and <0.001(*** or □□□).
For time course analyses and inhibitor profiles the IgG degradation reaction was performed with 0.25 mg/ml porcine IgG and 2 μM purified IgdE^ΔC at 37° C. in PBS uninhibited or in the presence of 2.5 μM or […] AEBSF (Sigma), EDTA, E-64 (Sigma), lodoacetamide (Sigma), or Z-LVG-CHN2 (Bachem). DMSO (Sigma) at 0.275%, corresponding to the DMSO content in 250 µM Z-LVG-CHN2, was used as a solvent control. The reactions were continuously sampled and subjected to SDS-PAGE under reducing conditions. Protein bands were detected by staining with Coomassie Fluor™ Orange Protein Gel Stain (Invitrogen). The IgG degradation product was densitometrical quantified by imaging with LAS4000 imaging system (Fujifilm) and analyzed with Image Studio Version 3.1 (LI-COR Biosciences) software. Uninhibited over-night cleavage was set as 100% relative cleavage for the time course experiment. For the inhibitor profile the initial cleavage rate was calculated from the initial increase of cleavage product (0-25% relative cleavage) and the initial cleavage rate of the uninhibited reaction was set as 100% relative activity. Experiments were at least performed in triplicates. Statistical analyses were performed using GraphPad Prism Version 5.0.

[3] = system: porcine IgG; assay: IgG cleavage by IgdE, SDS-PAGE; assay type: biochemical, pig; conditions: 3.3 μM porcine IgG, 16 h at 37° C., soluble fractions of E. coli expressing the construct, reducing SDS-PAGE
Protocol: (A) Schematic illustration of IgdE and the different rIgdE constructs with potential active site residues substitutions and the C-terminal truncation variant. The secretion signal peptide (residues 1-37) is marked in light grey, the transglutaminase domain is boxed and the potential active site residues and substitutions are indicated. (B) 3.3 μM porcine IgG was incubated for 16 h at 37° C. with soluble fractions of E. coli cells expressing different rIgdE constructs. The reaction was analyzed SDS-PAGE under reducing conditions. […] The weak protein band of 37 kDa is a contaminant present in lysate preparation and not related to IgdE activity.
0.5 mg/ml of porcine IgG (Sigma) in PBS or of other species (human, goat, cow, horse and mouse; all Sigma) were incubated with either crude extracts of induced E. coli carrying S. suis IgdE constructs mentioned above or 10 nM purified rIgdE for 16 h at 37° C. prior subjection to SDS-PAGE under either reducing or non-reducing conditions.
as §1

[4] = 125 fold molar excess of inhibitor, 37° C., up to 18 h
[5] = purified recombinant IgdE^ΔC, inhibitor at 250 μM and 2.5 μM per FIG. 3

| Molecule | IgG cleaving activity in the presence of class specific protease inhibitors [1] | IgG proteolytic activity of purified IgdE^ΔC in presence of inhibitor [2, 4] | IgG cleavage product in presence of inhibitor ([1]; inhibitor 0.1-5 mM) | IgG cleavage (32 kDa band) by rIgdE constructs [3] | further results |
| --- | --- | --- | --- | --- | --- |
| NCCc1ccc(S(=O)(=O)F)cc1 [AEBSF] | interfered moderately with IgG cleavage | inhibited the IgdEAC moderately | – | – | IgG cleavage product in presence of inhibitor ([1]; inhibitor 5 mM): no degradation product was observed; IgG cleavage product in presence of inhibitor ([1]; inhibitor 0.1-1 mM): A cleavage product of IgG can be observed |
| CC(C)C[C@H](NC(=O)[C@H]1O[C@@H]1C(=O)O)C(=O)NCCCCN=C(N)N [E-64] | appeared to inhibit IgG degrading activity | – | – | – | IgG cleavage activity of S. suis culture supernatants in presence of inhibitor ([1]; at very high concentrations): interfered with IgG cleavage activity; IgG cleavage product in presence of inhibitor ([1]; inhibitor 50 μM): A cleavage product of IgG can be observed; IgG cleavage product in presence of inhibitor ([1]; inhibitor 250 μM): no degradation product was observed; IgG proteolytic activity of purified IgdE^ΔC in presence of inhibitor [2, 5]: did not inhibit |
| O=C(O)CN(CCN(CC(=O)O)CC(=O)O)CC(=O)O [EDTA] | did not affect IgG cleavage | – | A cleavage product of IgG can be observed | – | IgG proteolytic activity of purified IgdE^ΔC in presence of inhibitor [2, 5]: fully active |
| CC(C)CC(NC(=O)OCc1ccccc1)C(=O)NC(C(=O)NCC(=O)C=[N+]=[N-])C(C)C (stereo not drawn) [Z-LVG-CHN2] (Cbz-Leu-Val-Gly-CHN2; configuration not given here) | appeared to inhibit IgG degrading activity | no cleavage product at all could be detected; also recorded: completely inhibited | no degradation product was observed | – | – |
| NC(=O)CI [iodoacetamide] | appeared to inhibit IgG degrading activity | no cleavage product at all could be detected | no degradation product was observed | – | – |
| B1 | – | – | – | IgG cleavage (*) occurred; also recorded: somewhat reduced IgG cleaving activity | – |
| B2 | – | – | – | neither rIgdE^C302S nor rIgdE^H333A exhibited IgG cleaving activity | – |
| B3 | – | – | – | neither rIgdE^C302S nor rIgdE^H333A exhibited IgG cleaving activity | – |
